Measurements from PubChem BioAssay AID328 (DTP/NCI, 2004).
“And” between values parts separate entries of the source, which are not always exact repeats. Equal entries are not always repeated. Toxic doses and inconclusive results are not listed.

Test system: BDF1 mice, P388 leukemia ip, median survival T/C
Assay: NCI In Vivo Anticancer Drug Screen. Data for tumor model P388 Leukemia (intraperitoneal) in B6D2F1 (BDF1) mice
Details: endpoint: median survival time, higher = longer survival
In short: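 Each value expresses how treatment altered survival: treated-mouse outcome over vehicle-mouse outcome, both groups bearing the transplanted tumour.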

[1] = dose: 50.0 mg/kg/injection, schedule: Q01DX009 (ip), vehicle: saline with Tween-80
[2] = dose: 100.0 mg/kg/injection, schedule: Q01DX009 (ip), vehicle: saline with Tween-80
[3] = dose: 100.0 mg/kg/injection, schedule: Q04DX003 (ip), vehicle: saline with Tween-80
[4] = dose: 200.0 mg/kg/injection, schedule: Q01DX009 (ip), vehicle: saline with Tween-80
[5] = dose: 200.0 mg/kg/injection, schedule: Q04DX003 (ip), vehicle: saline with Tween-80
[6] = dose: 400.0 mg/kg/injection, schedule: Q04DX003 (ip), vehicle: saline with Tween-80
[7] = dose: 12.5 mg/kg/injection, schedule: Q01DX009 (ip), vehicle: saline with Tween-80
[8] = dose: 25.0 mg/kg/injection, schedule: Q01DX009 (ip), vehicle: saline with Tween-80
[9] = dose: 50.0 mg/kg/injection, schedule: Q04DX003 (ip), vehicle: saline with Tween-80
[10] = dose: 400.0 mg/kg/injection, schedule: Q01DX009 (ip), vehicle: saline with Tween-80
[11] = dose: 50.0 mg/kg/injection, schedule: Q04DX003 (ip), vehicle: saline
[12] = dose: 100.0 mg/kg/injection, schedule: Q04DX003 (ip), vehicle: saline
[13] = dose: 200.0 mg/kg/injection, schedule: Q04DX003 (ip), vehicle: saline
[14] = dose: 400.0 mg/kg/injection, schedule: Q04DX003 (ip), vehicle: saline
[15] = dose: 50.0 mg/kg/injection, schedule: Q01DX009 (ip), vehicle: saline
[16] = dose: 150.0 mg/kg/injection, schedule: Q04DX003 (ip), vehicle: saline with Tween-80

NC(=O)c1cn(C2OC(CO)C(O)C2O)c2ncnc(N)c12 (stereo not drawn)
T/C (dose: 0.18 mg/kg/injection, schedule: Q01DX009 (ip), vehicle: saline with Tween-80): 183 % of control | T/C (dose: 0.25 mg/kg/injection, schedule: Q01DX010 (ip), vehicle: water): 181 % of control | T/C (dose: 0.37 mg/kg/injection, schedule: Q01DX009 (ip), vehicle: saline with Tween-80): 162 % of control | T/C (dose: 0.5 mg/kg/injection, schedule: Q01DX010 (ip), vehicle: water): 190 % of control | T/C (dose: 0.5 mg/kg/injection, schedule: Q04DX003 (ip), vehicle: saline): 163 % of control | T/C (dose: 0.75 mg/kg/injection, schedule: Q01DX009 (ip), vehicle: saline with Tween-80): 187 % of control and 200 % of control | T/C (dose: 0.75 mg/kg/injection, schedule: Q01DX010 (ip), vehicle: water): 177 % of control | T/C (dose: 1.5 mg/kg/injection, schedule: Q01DX009 (ip), vehicle: saline with Tween-80): 195 % of control | T/C (dose: 1.5 mg/kg/injection, schedule: Q04DX003 (ip), vehicle: saline): 154 % of control | T/C (dose: 2.0 mg/kg/injection, schedule: Q04DX003 (ip), vehicle: saline with Tween-80): 122 % of control | T/C (dose: 3.0 mg/kg/injection, schedule: Q04DX003 (ip), vehicle: saline with Tween-80): 195 % of control | T/C (dose: 3.0 mg/kg/injection, schedule: Q04DX003 (ip), vehicle: saline): 195 % of control | T/C (dose: 6.0 mg/kg/injection, schedule: Q04DX003 (ip), vehicle: saline with Tween-80): 190 % of control | T/C (dose: 6.0 mg/kg/injection, schedule: Q04DX003 (ip), vehicle: saline): 90 % of control

COc1cccc(CCNC(=O)CC#N)c1OC
T/C [1]: 105 % of control | T/C [2]: 105 % of control | T/C [3]: 100 % of control | T/C [4]: 95 % of control | T/C [5]: 100 % of control | T/C [6]: 100 % of control

COc1cc2ccc3c4cc5c(cc4cnc3c2cc1OC)OCO5
T/C [7]: 109 % of control and 119 % of control | T/C (dose: 12.5 mg/kg/injection, schedule: Q04DX003 (ip), vehicle: saline with Tween-80): 102 % of control | T/C [8]: 106 % of control | T/C (dose: 25.0 mg/kg/injection, schedule: Q04DX003 (ip), vehicle: saline with Tween-80): 100 % of control | T/C [1]: 106 % of control | T/C [9]: 92 % of control | T/C [2]: 99 % of control and 100 % of control and 114 % of control | T/C [4]: 107 % of control and 111 % of control | T/C [10]: 101 % of control and 124 % of control | T/C [6]: 92 % of control

O=C(Nc1cc(Cl)ccc1Cl)O/N=C/c1ccncc1
T/C [7]: 106 % of control | T/C [8]: 90 % of control | T/C [1]: 96 % of control

CCCCOC(=O)c1ccc(OCCOc2ccc(C(C)(C)CC(C)(C)C)cc2)c(NC(=O)CC(=O)c2cccc(N)c2)c1
T/C (dose: 6.25 mg/kg/injection, schedule: Q04DX003 (ip), vehicle: saline sonified): 100 % of control | T/C (dose: 12.5 mg/kg/injection, schedule: Q04DX003 (ip), vehicle: saline sonified): 91 % of control

CC(=O)N1C(=O)NC(=O)C1(CSCc1ccccc1)CSCc1ccccc1
T/C (dose: 25.0 mg/kg/injection, schedule: Q04DX003 (ip), vehicle: saline): 98 % of control | T/C [11]: 98 % of control | T/C [12]: 116 % of control | T/C [13]: 107 % of control | T/C [14]: 99 % of control

O=c1cc(CO)[nH]cc1O
T/C (dose: 177.0 mg/kg/injection, schedule: Q01DX009 (ip), vehicle: Klucel (hydroxypropylcellulose) (HPC)): 119 % of control

CCCCCCCCCCCC(=O)CCC
T/C (dose: 100.0 mg/kg/injection, schedule: Q04DX003 (ip), vehicle: other): 100 % of control | T/C (dose: 200.0 mg/kg/injection, schedule: Q04DX003 (ip), vehicle: other): 91 % of control and 100 % of control | T/C (dose: 400.0 mg/kg/injection, schedule: Q04DX003 (ip), vehicle: other): 91 % of control and 100 % of control

CN1CC=Nc2c1nc(N)[nH]c2=O
T/C [7]: 109 % of control | T/C [8]: 107 % of control | T/C [1]: 102 % of control

Cc1ccc(S(=O)(=O)Cl)c(Cl)c1
T/C [8]: 100 % of control | T/C [1]: 116 % of control | T/C [9]: 104 % of control | T/C [2]: 112 % of control | T/C [3]: 113 % of control

CS(C)=O.CS(C)=O.CS(C)=O.[Cl][Rh]([Cl])[Cl]
T/C (dose: 3.12 mg/kg/injection, schedule: Q01DX009 (ip), vehicle: saline): 114 % of control | T/C (dose: 6.25 mg/kg/injection, schedule: Q01DX009 (ip), vehicle: saline): 114 % of control | T/C (dose: 12.5 mg/kg/injection, schedule: Q01DX009 (ip), vehicle: saline): 116 % of control | T/C (dose: 25.0 mg/kg/injection, schedule: Q01DX009 (ip), vehicle: saline): 104 % of control and 116 % of control | T/C [15]: 116 % of control | T/C [11]: 100 % of control | T/C [12]: 109 % of control

CCCOP(=S)(N1CC1C)N1CC1(C)C (stereo not drawn)
T/C (dose: 33.0 mg/kg/injection, schedule: Q01DX009 (ip), vehicle: saline with Tween-80): 154 % of control | T/C [1]: 186 % of control | T/C (dose: 75.0 mg/kg/injection, schedule: Q01DX009 (ip), vehicle: saline with Tween-80): 190 % of control | T/C [3]: 159 % of control and 166 % of control | T/C [16]: 208 % of control | T/C [5]: 154 % of control

COC1CCC(OC2C(C)C(O)(C(C)C(=O)O)OC(CC3CC(OC)C(C)C4(O3)OC(C)(C3CCC(C5CCC(C6OC(C)(O)C(C)C(OC)C6C)O5)O3)C(OC)C4C)C2(C)OC)OC1C (stereo not drawn)
T/C (dose: 0.62 mg/kg/injection, schedule: Q01DX009 (ip), vehicle: saline): 94 % of control | T/C (dose: 1.25 mg/kg/injection, schedule: Q01DX009 (ip), vehicle: saline): 96 % of control

CC(=O)Nc1cccc([N+](=O)[O-])c1
T/C [1]: 100 % of control | T/C [2]: 100 % of control | T/C [4]: 104 % of control

CSCC1(O)CCCCC1
T/C [1]: 111 % of control | T/C [2]: 101 % of control | T/C [4]: 112 % of control

CC(=O)Nc1ccc(C)c([N+](=O)[O-])c1
T/C [15]: 92 % of control | T/C (dose: 100.0 mg/kg/injection, schedule: Q01DX009 (ip), vehicle: saline): 97 % of control | T/C [12]: 99 % of control | T/C (dose: 200.0 mg/kg/injection, schedule: Q01DX009 (ip), vehicle: saline): 118 % of control | T/C [13]: 100 % of control | T/C [14]: 90 % of control

COc1ccc(/C=C2\CCCC3=C2NC(=S)NC3c2ccc(OC)cc2)cc1 (stereo not drawn)
T/C [1]: 107 % of control | T/C [2]: 97 % of control | T/C [4]: 91 % of control

COc1ccc(N=Cc2cccs2)cc1
T/C [2]: 119 % of control | T/C [4]: 96 % of control | T/C [10]: 100 % of control

Cc1ccc(CC(=O)O)cc1C
T/C (dose: 44.0 mg/kg/injection, schedule: Q04DX003 (ip), vehicle: saline with Tween-80): 109 % of control | T/C (dose: 66.0 mg/kg/injection, schedule: Q04DX003 (ip), vehicle: saline with Tween-80): 104 % of control | T/C [3]: 104 % of control | T/C [16]: 104 % of control

COC(=O)c1cc(Cl)cc(C(=O)OC)c1
T/C [3]: 100 % of control | T/C [5]: 90 % of control | T/C [6]: 95 % of control

BrCc1c(CBr)c(CBr)c(CBr)c(CBr)c1CBr
T/C (dose: 25.0 mg/kg/injection, schedule: Q01DX009 (ip), vehicle: Klucel (hydroxypropylcellulose) (HPC)): 95 % of control | T/C (dose: 25.0 mg/kg/injection, schedule: Q04DX003 (ip), vehicle: Klucel (hydroxypropylcellulose) (HPC)): 109 % of control | T/C (dose: 50.0 mg/kg/injection, schedule: Q01DX009 (ip), vehicle: Klucel (hydroxypropylcellulose) (HPC)): 100 % of control | T/C (dose: 50.0 mg/kg/injection, schedule: Q04DX003 (ip), vehicle: Klucel (hydroxypropylcellulose) (HPC)): 100 % of control | T/C (dose: 100.0 mg/kg/injection, schedule: Q01DX009 (ip), vehicle: Klucel (hydroxypropylcellulose) (HPC)): 109 % of control | T/C (dose: 100.0 mg/kg/injection, schedule: Q04DX003 (ip), vehicle: Klucel (hydroxypropylcellulose) (HPC)): 95 % of control

O=CN(SSN(C=O)C1CCCCC1)C1CCCCC1
T/C [1]: 108 % of control and 116 % of control | T/C [2]: 122 % of control

CC[C@@H]1C[C@H]2CC3c4[nH]c5ccc(O)cc5c4CCN(C2)C31
T/C (dose: 25.0 mg/kg/injection, schedule: Q01DX001 (ip), vehicle: saline with Tween-80): 106 % of control | T/C (dose: 50.0 mg/kg/injection, schedule: Q01DX001 (ip), vehicle: saline with Tween-80): 104 % of control | T/C (dose: 100.0 mg/kg/injection, schedule: Q01DX001 (ip), vehicle: saline with Tween-80): 108 % of control
